Earlier results in paper PMC3433420 (PLoS ONE, 2012).
pKd: −log10 of the molar value. Like-named read-outs stand apart in the source and are kept apart here.

How the values were obtained:
SH2 and PTB domains = conditions: most recent PM interactions, cited from earlier work
Excerpt: Supplement pone.0044471.s022.xlsx, sheet "Most recent PM interactions" | column: Kd || Supplement pone.0044471.s022.xlsx, sheet "All original PM interactions" | column: Kd

GRB7 SH2 domain = GRB7 SH2 domain (Homo sapiens, UniProt Q14451); design: 6X His; thioredoxin; made in house; host or cells: E. coli BL21(DE3)pLysS; conditions: Protein GRB7, most recent PM interactions, cited from earlier work
Chain of GRB7 SH2 domain (Q14451 431-527 limits assumed): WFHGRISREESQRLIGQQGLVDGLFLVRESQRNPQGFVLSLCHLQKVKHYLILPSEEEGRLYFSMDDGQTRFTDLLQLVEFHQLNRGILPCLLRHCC

[1] = Protein ABL2, ref Jones et al. 2006 / Kaushansky et al. Chem and Biol 2008
[2] = Protein BLK, ref Jones et al. 2006 / Kaushansky et al. Chem and Biol 2008
[3] = Protein GRB10, ref Jones et al. 2006 / Kaushansky et al. Chem and Biol 2008
[4] = Protein ITK, ref Jones et al. 2006 / Kaushansky et al. Chem and Biol 2008
[5] = Protein PIK3R1-NC, ref Jones et al. 2006 / Kaushansky et al. Chem and Biol 2008
[6] = Protein PLCG1-NC, ref Jones et al. 2006 / Kaushansky et al. Chem and Biol 2008
[7] = Protein PLCG2-N, ref Jones et al. 2006 / Kaushansky et al. Chem and Biol 2008
[8] = Protein RASA1-N, ref Jones et al. 2006 / Kaushansky et al. Chem and Biol 2008
[9] = Protein RASA1-NC, ref Jones et al. 2006 / Kaushansky et al. Chem and Biol 2008
[10] = Protein SH2D3A, ref Jones et al. 2006 / Kaushansky et al. Chem and Biol 2008
[11] = Protein SH2D3C, ref Jones et al. 2006 / Kaushansky et al. Chem and Biol 2008
[12] = Protein SHC1-PTB, ref Jones et al. 2006 / Kaushansky et al. Chem and Biol 2008
[13] = Protein SHC2-PTB, ref Jones et al. 2006 / Kaushansky et al. Chem and Biol 2008
[14] = Protein SHF, ref Jones et al. 2006 / Kaushansky et al. Chem and Biol 2008
[15] = Protein SRC, ref Jones et al. 2006 / Kaushansky et al. Chem and Biol 2008
[16] = Protein SYK-C, ref Jones et al. 2006 / Kaushansky et al. Chem and Biol 2008
[17] = Protein SYK-N, ref Jones et al. 2006 / Kaushansky et al. Chem and Biol 2008
[18] = Protein SYK-NC, ref Jones et al. 2006 / Kaushansky et al. Chem and Biol 2008
[19] = Protein TEC, ref Jones et al. 2006 / Kaushansky et al. Chem and Biol 2008
[20] = Protein VAV3, ref Jones et al. 2006 / Kaushansky et al. Chem and Biol 2008
[21] = Protein YES1, ref Jones et al. 2006 / Kaushansky et al. Chem and Biol 2008
[22] = ref Jones et al. 2006 / Kaushansky et al. Chem and Biol 2008

AFSPAFDNLYpYWDQDPPE [ErbB2 1222]
pKd (SH2 and PTB domains; Protein ABL1, ref Jones et al. 2006 / Kaushansky et al. Chem and Biol 2008): 5.74
pKd (SH2 and PTB domains; [1]): 6.72
pKd (SH2 and PTB domains; [2]): 7.30
pKd (SH2 and PTB domains; Protein CRKL, ref Jones et al. 2006 / Kaushansky et al. Chem and Biol 2008): 5.84
pKd (SH2 and PTB domains; [3]): 6.31
pKd (SH2 and PTB domains; [4]): 6.66
pKd (SH2 and PTB domains; [5]): 5.74
pKd (SH2 and PTB domains; Protein PIK3R3-NC, ref Jones et al. 2006 / Kaushansky et al. Chem and Biol 2008): 6.11
pKd (SH2 and PTB domains; [6]): 5.75
pKd (SH2 and PTB domains; [7]): 6.22
pKd (SH2 and PTB domains; Protein PLCG2-NC, ref Jones et al. 2006 / Kaushansky et al. Chem and Biol 2008): 6.59
pKd (SH2 and PTB domains; [8]): 6.30
pKd (SH2 and PTB domains; [9]): 6.66
pKd (SH2 and PTB domains; Protein SH2B2, ref Jones et al. 2006 / Kaushansky et al. Chem and Biol 2008): 5.83
pKd (SH2 and PTB domains; [10]): 5.80
pKd (SH2 and PTB domains; [11]): 6.15
pKd (SH2 and PTB domains; [12]): 6.21
pKd (SH2 and PTB domains; [13]): 6.34
pKd (SH2 and PTB domains; Protein SHC3, ref Jones et al. 2006 / Kaushansky et al. Chem and Biol 2008): 5.77
pKd (SH2 and PTB domains; [14]): 6.23
pKd (SH2 and PTB domains; [15]): 6.70
pKd (SH2 and PTB domains; [16]): 5.71
pKd (SH2 and PTB domains; [17]): 6.70
pKd (SH2 and PTB domains; [18]): 6.34
pKd (SH2 and PTB domains; [19]): 5.79
pKd (SH2 and PTB domains; Protein TENC1, ref Jones et al. 2006 / Kaushansky et al. Chem and Biol 2008): 6.08
pKd (SH2 and PTB domains; Protein TNS3, ref Jones et al. 2006 / Kaushansky et al. Chem and Biol 2008): 5.89
pKd (SH2 and PTB domains; [20]): 5.95
pKd (SH2 and PTB domains; [21]): 6.66
pKd (GRB7 SH2 domain; [22]): 6.60

AFSPAFDNLpYYWDQDPPE [ErbB2 1221]
pKd (SH2 and PTB domains; [1]): 6.30
pKd (SH2 and PTB domains; [2]): 6.20
pKd (SH2 and PTB domains; Protein BLNK, ref Jones et al. 2006 / Kaushansky et al. Chem and Biol 2008): 5.81
pKd (SH2 and PTB domains; Protein FGR, ref Jones et al. 2006 / Kaushansky et al. Chem and Biol 2008): 6.38
pKd (SH2 and PTB domains; [3]): 6.92
pKd (SH2 and PTB domains; Protein GRB14, ref Jones et al. 2006 / Kaushansky et al. Chem and Biol 2008): 5.85
pKd (SH2 and PTB domains; [4]): 6.11
pKd (SH2 and PTB domains; Protein LYN, ref Jones et al. 2006 / Kaushansky et al. Chem and Biol 2008): 6.03
pKd (SH2 and PTB domains; [5]): 5.94
pKd (SH2 and PTB domains; Protein PIK3R2-N, ref Jones et al. 2006 / Kaushansky et al. Chem and Biol 2008): 6.02
pKd (SH2 and PTB domains; Protein PIK3R3-C, ref Jones et al. 2006 / Kaushansky et al. Chem and Biol 2008): 5.72
pKd (SH2 and PTB domains; Protein PLCG1-N, ref Jones et al. 2006 / Kaushansky et al. Chem and Biol 2008): 5.71
pKd (SH2 and PTB domains; [6]): 5.71
pKd (SH2 and PTB domains; [7]): 6.77
pKd (SH2 and PTB domains; [8]): 6.72
pKd (SH2 and PTB domains; [9]): 6.29
pKd (SH2 and PTB domains; [10]): 5.89
pKd (SH2 and PTB domains; [11]): 6.80
pKd (SH2 and PTB domains; Protein SHB, ref Jones et al. 2006 / Kaushansky et al. Chem and Biol 2008): 6.68
pKd (SH2 and PTB domains; [12]): 6.47
pKd (SH2 and PTB domains; [13]): 6.37
pKd (SH2 and PTB domains; [14]): 6.47
pKd (SH2 and PTB domains; Protein SLA2, ref Jones et al. 2006 / Kaushansky et al. Chem and Biol 2008): 5.84
pKd (SH2 and PTB domains; [15]): 7.46
pKd (SH2 and PTB domains; Protein SUPT6H, ref Jones et al. 2006 / Kaushansky et al. Chem and Biol 2008): 5.80
pKd (SH2 and PTB domains; [16]): 6.27
pKd (SH2 and PTB domains; [17]): 6.59
pKd (SH2 and PTB domains; [18]): 6.52
pKd (SH2 and PTB domains; [19]): 6.11
pKd (SH2 and PTB domains; Protein TXK, ref Jones et al. 2006 / Kaushansky et al. Chem and Biol 2008): 5.91
pKd (SH2 and PTB domains; Protein VAV2, ref Jones et al. 2006 / Kaushansky et al. Chem and Biol 2008): 5.76
pKd (SH2 and PTB domains; [20]): 5.95
pKd (SH2 and PTB domains; [21]): 7.35
pKd (SH2 and PTB domains; Protein ZAP70-NC, ref Jones et al. 2006 / Kaushansky et al. Chem and Biol 2008): 5.84
pKd (GRB7 SH2 domain; [22]): 6.28

DDTFLPVPEpYINQSVPKd [ErbB1 1092]
pKd (SH2 and PTB domains; Protein ABL1, ref Jones et al. 2006 / Kaushansky et al. Mol Biosys 2008 / Kaushansky et al. Chem and Biol 2008): 6.04
pKd (SH2 and PTB domains; Protein ABL2, ref Jones et al. 2006 / Kaushansky et al. Mol Biosys 2008 / Kaushansky et al. Chem and Biol 2008): 6.82
pKd (SH2 and PTB domains; Protein BLK, ref Jones et al. 2006 / Kaushansky et al. Mol Biosys 2008 / Kaushansky et al. Chem and Biol 2008): 6.52
pKd (SH2 and PTB domains; Protein GRB2, ref Jones et al. 2006 / Kaushansky et al. Mol Biosys 2008 / Kaushansky et al. Chem and Biol 2008): 6.70
pKd (SH2 and PTB domains; Protein GRB10, ref Jones et al. 2006 / Kaushansky et al. Mol Biosys 2008 / Kaushansky et al. Chem and Biol 2008): 5.89
pKd (SH2 and PTB domains; Protein ITK, ref Jones et al. 2006 / Kaushansky et al. Mol Biosys 2008 / Kaushansky et al. Chem and Biol 2008): 6.66
pKd (SH2 and PTB domains; Protein NCK2, ref Jones et al. 2006 / Kaushansky et al. Mol Biosys 2008 / Kaushansky et al. Chem and Biol 2008): 5.96
pKd (SH2 and PTB domains; Protein PIK3R1-N, ref Jones et al. 2006 / Kaushansky et al. Mol Biosys 2008 / Kaushansky et al. Chem and Biol 2008): 5.97
pKd (SH2 and PTB domains; Protein PIK3R1-NC, ref Jones et al. 2006 / Kaushansky et al. Mol Biosys 2008 / Kaushansky et al. Chem and Biol 2008): 6.17
pKd (SH2 and PTB domains; Protein PIK3R2-N, ref Jones et al. 2006 / Kaushansky et al. Mol Biosys 2008 / Kaushansky et al. Chem and Biol 2008): 6.35
pKd (SH2 and PTB domains; Protein PIK3R2-NC, ref Jones et al. 2006 / Kaushansky et al. Mol Biosys 2008 / Kaushansky et al. Chem and Biol 2008): 5.85
pKd (SH2 and PTB domains; Protein PIK3R3-N, ref Jones et al. 2006 / Kaushansky et al. Mol Biosys 2008 / Kaushansky et al. Chem and Biol 2008): 6.29
pKd (SH2 and PTB domains; Protein PIK3R3-NC, ref Jones et al. 2006 / Kaushansky et al. Mol Biosys 2008 / Kaushansky et al. Chem and Biol 2008): 5.99
pKd (SH2 and PTB domains; Protein PLCG2-NC, ref Jones et al. 2006 / Kaushansky et al. Mol Biosys 2008 / Kaushansky et al. Chem and Biol 2008): 5.79
pKd (SH2 and PTB domains; Protein RASA1-N, ref Jones et al. 2006 / Kaushansky et al. Mol Biosys 2008 / Kaushansky et al. Chem and Biol 2008): 6.74
pKd (SH2 and PTB domains; Protein SRC, ref Jones et al. 2006 / Kaushansky et al. Mol Biosys 2008 / Kaushansky et al. Chem and Biol 2008): 5.75
pKd (SH2 and PTB domains; Protein SYK-C, ref Jones et al. 2006 / Kaushansky et al. Mol Biosys 2008 / Kaushansky et al. Chem and Biol 2008): 5.72
pKd (SH2 and PTB domains; Protein SYK-NC, ref Jones et al. 2006 / Kaushansky et al. Mol Biosys 2008 / Kaushansky et al. Chem and Biol 2008): 6.04
pKd (SH2 and PTB domains; Protein VAV2, ref Jones et al. 2006 / Kaushansky et al. Mol Biosys 2008 / Kaushansky et al. Chem and Biol 2008): 6.27
pKd (SH2 and PTB domains; Protein YES1, ref Jones et al. 2006 / Kaushansky et al. Mol Biosys 2008 / Kaushansky et al. Chem and Biol 2008): 6.47
pKd (GRB7 SH2 domain; ref Jones et al. 2006 / Kaushansky et al. Mol Biosys 2008 / Kaushansky et al. Chem and Biol 2008): 5.70
